Measured values taken from patent US20070128217A1 (priority 2003, published 2007).

Columns and labels:
[1] = test system: antibodies in sera from SARS patients (sera 1a, 1b, 2, 6, 37, 62, London, SARS-yellow, SARS-green); assay type: binding, human; parameters: Binding of serum 6 to linear peptides of protein X1 of SARS-CoV Urbani / Binding of serum 37 to linear peptides of protein X1 of SARS-CoV Urbani / Binding of serum 6 to looped/cyclic peptide (PEPSCAN-ELISA) / Binding of serum 37 to looped/cyclic peptide (PEPSCAN-ELISA) / Binding of serum 37 to looped/cyclic peptides of protein X1 of SARS-CoV Urbani / Binding of serum 6 to linear peptides of protein X2 / Binding of serum 37 to linear peptides of protein X2 / Binding of serum 37 to looped/cyclic peptides of protein X2 of SARS-CoV Urbani / Binding of serum 6 to linear peptides of protein M of SARS-CoV Urbani / Binding of serum 37 to linear peptides of protein M of SARS-CoV Urbani / Binding of serum 6 to looped/cyclic peptides of protein M of SARS-CoV Urbani / Binding of serum 37 to looped/cyclic peptides of protein M of SARS-CoV Urbani / Binding of serum 6 to linear peptides of protein X3 of SARS-CoV Urbani / Binding of serum 37 to linear peptides of protein X3 of SARS-CoV Urbani / Binding of serum 37 to looped/cyclic peptides of protein X3 of SARS-CoV Urbani / Binding of serum 6 to linear peptides of protein X4 of SARS-CoV Urbani / Binding of serum 37 to linear peptides of protein X4 of SARS-CoV Urbani / Binding of serum 37 to looped/cyclic peptides of protein X4 of SARS-CoV Urbani / Binding of serum 6 to linear peptides of protein X5 of SARS-CoV Urbani / Binding of serum 37 to linear peptides of protein X5 of SARS-CoV Urbani / Binding of serum 37 to looped/cyclic peptides of protein X5 of SARS-CoV Urbani / Binding of serum 6 to linear peptides of protein N of SARS-CoV Urbani / Binding of serum 37 to linear peptides of protein N of SARS-CoV Urbani / Binding of serum 6 to linear peptide (PEPSCAN-ELISA) / Binding of serum 1a to looped/cyclic peptides of protein N of SARS-CoV Urbani / Binding of serum 1b to looped/cyclic peptides of protein N of SARS-CoV Urbani / Binding of serum 2 to looped/cyclic peptides of protein N of SARS-CoV Urbani / Binding of serum 6 to looped/cyclic peptides of protein N of SARS-CoV Urbani / Binding of serum 37 to looped/cyclic peptides of protein N of SARS-CoV Urbani / Binding of serum 62 to looped/cyclic peptides of protein N of SARS-CoV Urbani / Binding of serum London to looped/cyclic peptides of protein N of SARS-CoV Urbani / Binding of serum SARS-green to looped/cyclic peptides of protein N of SARS-CoV Urbani: unit not given here
[2] = test system: control sera (pooled serum of ten healthy LUMC hospital workers; commercial negative donor pooled serum from the Dutch bloodbank); assay type: binding, human; parameters: Binding of Control serum LUMC to linear peptides / Binding of Control serum Blood-bank to linear peptides / Binding of Control serum LUMC to looped peptides / Binding of Control Serum Blood-Bank to Looped peptides / Binding of Control serum LUMC to linear peptides of the protein M of SARS-CoV Urbani / Binding of Control serum Blood-bank to linear peptides of the protein M of SARS-CoV Urbani / Binding of Control serum LUMC to looped peptides of the protein M of SARS-CoV Urbani / Binding of Control Serum Blood-Bank to Looped peptides of the protein M of SARS-CoV Urbani: unit not given here
[3] = test system: rabbit serum obtained by immunizing a rabbit with the SARS-CoV strain Frankfurt 1; assay type: binding; parameters: Binding of a rabbit serum to linear peptides / Binding of a rabbit serum to looped peptides / Rabbit serum linear peptides / Rabbit serum looped peptides / Binding of a rabbit serum to linear peptides of protein N of SARS-CoV Urbani (Rabbit serum linear peptides) / Binding of a rabbit serum to looped/cyclic peptides of protein N of SARS-CoV Urbani (Rabbit serum looped peptides): unit not given here

AAFRDVLVVLNKRTN
Binding of serum 1a to linear peptides of protein X5 of SARS-CoV Urbani [1]: 0.6
Binding of serum 1a to looped/cyclic peptides of protein X5 of SARS-CoV Urbani [1]: 0.6
Binding of serum 1b to linear peptides of protein X5 of SARS-CoV Urbani [1]: 0.6
Binding of serum 1b to looped/cyclic peptides of protein X5 of SARS-CoV Urbani [1]: 0.4
Binding of serum 2 to linear peptides of protein X5 of SARS-CoV Urbani [1]: 0.6
Binding of serum 2 to looped/cyclic peptides of protein X5 of SARS-CoV Urbani [1]: 0.6
Binding of serum 6 to linear peptides of protein X5 of SARS-CoV Urbani [1]: 0.8
Binding of serum 6 to looped/cyclic peptides of protein X5 of SARS-CoV Urbani [1]: 0.8
Binding of serum 37 to linear peptides of protein X5 of SARS-CoV Urbani [1]: 0.5
Binding of serum 37 to looped/cyclic peptides of protein X5 of SARS-CoV Urbani [1]: 0.6
Binding of serum 62 to linear peptides of protein X5 of SARS-CoV Urbani [1]: 0.4
Binding of serum 62 to looped/cyclic peptides of protein X5 of SARS-CoV Urbani [1]: 0.5
Binding of serum London to linear peptides of protein X5 of SARS-CoV Urbani [1]: 0.6
Binding of serum London to looped/cyclic peptides of protein X5 of SARS-CoV Urbani [1]: 1.0
Binding of serum SARS-green to linear peptides of protein X5 of SARS-CoV Urbani [1]: 0.1
Binding of serum SARS-green to looped/cyclic peptides of protein X5 of SARS-CoV Urbani [1]: 0.4
Binding of serum SARS-yellow to linear peptides of protein X5 of SARS-CoV Urbani [1]: 0.8
Binding of serum SARS-yellow to looped/cyclic peptides of protein X5 of SARS-CoV Urbani [1]: 0.3
Binding of Control Serum Blood-Bank to Looped peptides [2]: 0.7
Binding of Control serum Blood-bank to linear peptides [2]: 0.6
Binding of Control serum LUMC to linear peptides [2]: 0.8
Binding of Control serum LUMC to looped peptides [2]: 0.4
Rabbit serum linear peptides [3]: 0.5
Rabbit serum looped peptides [3]: 0.6

AAGMEAQFLYLYALI
Binding of serum 1a to linear peptides of protein X1 of SARS-CoV Urbani [1]: 0.7
Binding of serum 1a to looped/cyclic peptide (PEPSCAN-ELISA) [1]: 0.6
Binding of serum 1b to linear peptides of protein X1 of SARS-CoV Urbani [1]: 0.6
Binding of serum 1b to looped/cyclic peptide (PEPSCAN-ELISA) [1]: 0.4
Binding of serum 2 to linear peptides of protein X1 of SARS-CoV Urbani [1]: 0.6
Binding of serum 2 to looped/cyclic peptide (PEPSCAN-ELISA) [1]: 0.5
Binding of serum 6 to linear peptides of protein X1 of SARS-CoV Urbani [1]: 0.5
Binding of serum 6 to looped/cyclic peptide (PEPSCAN-ELISA) [1]: 0.3
Binding of serum 37 to linear peptides of protein X1 of SARS-CoV Urbani [1]: 0.5
Binding of serum 37 to looped/cyclic peptide (PEPSCAN-ELISA) [1]: 0.6
Binding of serum 62 to linear peptides of protein X1 of SARS-CoV Urbani [1]: 0.5
Binding of serum 62 to looped/cyclic peptide (PEPSCAN-ELISA) [1]: 0.6
Binding of serum London to linear peptides of protein X1 of SARS-CoV Urbani [1]: 0.2
Binding of serum London to looped/cyclic peptide (PEPSCAN-ELISA) [1]: 0.2
Binding of serum SARS-green to linear peptides of protein X1 of SARS-CoV Urbani [1]: 0.2
Binding of serum SARS-green to looped/cyclic peptide (PEPSCAN-ELISA) [1]: 0.3
Binding of serum SARS-yellow to linear peptides of protein X1 of SARS-CoV Urbani [1]: 0.3
Binding of serum SARS-yellow to looped/cyclic peptide (PEPSCAN-ELISA) [1]: 0.4
Binding of Control Serum Blood-Bank to Looped peptides [2]: 0.5
Binding of Control serum Blood-bank to linear peptides [2]: 0.5
Binding of Control serum LUMC to linear peptides [2]: 0.9
Binding of Control serum LUMC to looped peptides [2]: 0.7
Binding of a rabbit serum to linear peptides [3]: 0.1
Binding of a rabbit serum to looped peptides [3]: 0.6

ACIVGLMWLSYFVAS
Binding of serum 1a to linear peptides of protein M of SARS-CoV Urbani [1]: 0.7
Binding of serum 1a to looped/cyclic peptides of protein M of SARS-CoV Urbani [1]: 0.6
Binding of serum 1b to linear peptides of protein M of SARS-CoV Urbani [1]: 0.5
Binding of serum 1b to looped/cyclic peptides of protein M of SARS-CoV Urbani [1]: 0.3
Binding of serum 2 to linear peptides of protein M of SARS-CoV Urbani [1]: 0.5
Binding of serum 2 to looped/cyclic peptides of protein M of SARS-CoV Urbani [1]: 0.5
Binding of serum 6 to linear peptides of protein M of SARS-CoV Urbani [1]: 0.4
Binding of serum 6 to looped/cyclic peptides of protein M of SARS-CoV Urbani [1]: 0.6
Binding of serum 37 to linear peptides of protein M of SARS-CoV Urbani [1]: 0.6
Binding of serum 37 to looped/cyclic peptides of protein M of SARS-CoV Urbani [1]: 0.5
Binding of serum 62 to linear peptides of protein M of SARS-CoV Urbani [1]: 0.7
Binding of serum 62 to looped/cyclic peptides of protein M of SARS-CoV Urbani [1]: 0.4
Binding of serum London to linear peptides of protein M of SARS-CoV Urbani [1]: 0.3
Binding of serum London to looped/cyclic peptides of protein M of SARS-CoV Urbani [1]: 0.2
Binding of serum SARS-green to linear peptides of protein M of SARS-CoV Urbani [1]: 0.2
Binding of serum SARS-green to looped/cyclic peptides of protein M of SARS-CoV Urbani [1]: 0.2
Binding of serum SARS-yellow to linear peptides of protein M of SARS-CoV Urbani [1]: 0.1
Binding of serum SARS-yellow to looped/cyclic peptides of protein M of SARS-CoV Urbani [1]: 0.4
Binding of Control Serum Blood-Bank to Looped peptides of the protein M of SARS-CoV Urbani [2]: 0.6
Binding of Control serum Blood-bank to linear peptides of the protein M of SARS-CoV Urbani [2]: 0.6
Binding of Control serum LUMC to linear peptides of the protein M of SARS-CoV Urbani [2]: 0.3
Binding of Control serum LUMC to looped peptides of the protein M of SARS-CoV Urbani [2]: 0.5
Rabbit serum linear peptides [3]: 0.3
Rabbit serum looped peptides [3]: 0.8

ACRIIMRCWLCWKCK
Recognition of the peptide by sera of SARS-CoV infected individuals, and form (linear, looped/cyclic) in which it is recognized [1]: recognized in linear form
Binding of Control Serum Blood-Bank to Looped peptides [2]: 0.1
Binding of Control serum Blood-bank to linear peptides [2]: 1.0
Binding of Control serum LUMC to linear peptides [2]: 0.8
Binding of Control serum LUMC to looped peptides [2]: 0.3
Recognition of the peptide by the rabbit serum [3]: recognized

ADGTRHTYQLRARSV
Binding of serum 1a to linear peptides of protein X4 of SARS-CoV Urbani [1]: 0.7
Binding of serum 1a to looped/cyclic peptides of protein X4 of SARS-CoV Urbani [1]: 0.7
Binding of serum 1b to linear peptides of protein X4 of SARS-CoV Urbani [1]: 0.6
Binding of serum 1b to looped/cyclic peptides of protein X4 of SARS-CoV Urbani [1]: 0.4
Binding of serum 2 to linear peptides of protein X4 of SARS-CoV Urbani [1]: 0.6
Binding of serum 2 to looped/cyclic peptides of protein X4 of SARS-CoV Urbani [1]: 0.6
Binding of serum 6 to linear peptides of protein X4 of SARS-CoV Urbani [1]: 0.5
Binding of serum 6 to looped/cyclic peptides of protein X4 of SARS-CoV Urbani [1]: 0.7
Binding of serum 37 to linear peptides of protein X4 of SARS-CoV Urbani [1]: 0.7
Binding of serum 37 to looped/cyclic peptides of protein X4 of SARS-CoV Urbani [1]: 0.7
Binding of serum 62 to linear peptides of protein X4 of SARS-CoV Urbani [1]: 0.7
Binding of serum 62 to looped/cyclic peptides of protein X4 of SARS-CoV Urbani [1]: 0.6
Binding of serum London to linear peptides of protein X4 of SARS-CoV Urbani [1]: 0.7
Binding of serum London to looped/cyclic peptides of protein X4 of SARS-CoV Urbani [1]: 0.3
Binding of serum SARS-green to linear peptides of protein X4 of SARS-CoV Urbani [1]: 0.6
Binding of serum SARS-green to looped/cyclic peptides of protein X4 of SARS-CoV Urbani [1]: 0.5
Binding of serum SARS-yellow to linear peptides of protein X4 of SARS-CoV Urbani [1]: 0.7
Binding of serum SARS-yellow to looped/cyclic peptides of protein X4 of SARS-CoV Urbani [1]: 0.6
Binding of Control Serum Blood-Bank to Looped peptides [2]: 0.6
Binding of Control serum Blood-bank to linear peptides [2]: 0.6
Binding of Control serum LUMC to linear peptides [2]: 0.6
Binding of Control serum LUMC to looped peptides [2]: 0.6
Recognition of the peptide by the rabbit serum [3]: recognized
